These results are taken from PMC10892423 (Pharmaceutics, 2024).

In assay [1] the test system is MBL-producing P. aeruginosa clinical isolates. As to the kind of experiment: Broth microdilution checkerboard synergy assay (MIC of ATM in combination). It is filed as cell-based, Pseudomonas aeruginosa. The settings on record: four representative MBL-producing P. aeruginosa strains (Table 2).
The target of assay [2] is T1, OXA-48 (Klebsiella pneumoniae, UniProt Q6XEC0).
T1 construct: Genes encoding OXA-48 (residues 23–265) and VIM-2 (residues 27–266) were custom-synthesized; made in house
As to the kind of experiment: β-lactamase inhibition, nitrocefin hydrolysis. Format: biochemical. An excerpt:
(§1) Recombinant AmpC from Escherichia coli was produced according to a previously reported protocol. KPC-2 and NDM-1 […] were purchased from LifeSpan Biosciences, Inc. (Lynnwood, WA, USA) (LS-G26598) and RayBiotech, Inc. (Peachtree Corners, GA, USA) (230-00554), respectively. Genes encoding OXA-48 (residues 23–265) and VIM-2 (residues 27–266) were custom-synthesized (Bioneer Inc., Seoul, Republic of Korea) and expressed as previously described. The β-lactamase inhibitory activity of the title compounds was then determined according to the previously reported methods. Briefly, equal volumes (100 μL) of the title compounds (70–0.1 μM in PBS) and diluted enzyme stock were mixed (final concentration 2% of DMSO in 200 μL) in 96-well plates, which were then incubated at 37 °C for 20 min. The incubated mixture was added to each well containing substrates (nitrocefin for AmpC, KPC-2, OXA-48, and VIM-2; and imipenem for NDM-1) of final concentrations of 70 μM for nitrocefin and 100 μM for imipenem. Substrate hydrolysis was monitored at 486 nm (nitrocefin) or 300 nm (imipenem) for 15 min, using a Cytation 5 imaging multimode reader (BioTek Instruments Inc., Winooski, VT, USA). At the plateau level of hydrolysis, the corresponding rates of hydrolysis were compared to those obtained without inhibitors (100%) to determine the percentage of enzyme inhibition at each concentration of the title compounds. The IC50 values of the compounds were derived from sigmoidal dose–response curves, using GraphPad Prism 5 (GraphPad Software, Boston, MA, USA).

Assay [3] has as its target T2, AmpC (Escherichia coli, UniProt P00811).
T2 construct: made in house
Put plainly: β-lactamase inhibition, nitrocefin hydrolysis. Format: biochemical.
Source text: as §1

The target in assay [4] is T3, VIM-2 (Escherichia coli, UniProt Q5U7L7).
T3 construct: Genes encoding OXA-48 (residues 23–265) and VIM-2 (residues 27–266) were custom-synthesized; made in house
Put plainly: β-lactamase inhibition, nitrocefin hydrolysis. Format: biochemical.
Source text: as §1

Assay [5] concerns the target T4, KPC-2 (Klebsiella pneumoniae, UniProt Q9F663).
T4 construct: purchased LifeSpan Biosciences, Inc. LS-G26598
Put plainly: β-lactamase inhibition, nitrocefin hydrolysis. It is filed as biochemical.
Source text: as §1

Assay [6] concerns the target T5, NDM-1 (Klebsiella pneumoniae, UniProt C7C422).
T5 construct: purchased RayBiotech, Inc. 230-00554
Put plainly: β-lactamase inhibition, imipenem hydrolysis. It is filed as biochemical.
Source text: as §1

Setting [7] is: nitrocefin substrate, read-out: β-Lactamases, IC50 OXA-48.
Where [8] appears, read: nitrocefin substrate, read-out: β-Lactamases, IC50 VIM-2.
Where [9] appears, read: nitrocefin substrate, read-out: β-Lactamases, IC50 KPC-2.
The mark [10] stands for this setting: imipenem substrate, read-out: β-Lactamases, IC50 NDM-1.

Read-outs that look alike come from different tables or passages of the source.

T1 sequence (Q6XEC0 23-265 limits assumed): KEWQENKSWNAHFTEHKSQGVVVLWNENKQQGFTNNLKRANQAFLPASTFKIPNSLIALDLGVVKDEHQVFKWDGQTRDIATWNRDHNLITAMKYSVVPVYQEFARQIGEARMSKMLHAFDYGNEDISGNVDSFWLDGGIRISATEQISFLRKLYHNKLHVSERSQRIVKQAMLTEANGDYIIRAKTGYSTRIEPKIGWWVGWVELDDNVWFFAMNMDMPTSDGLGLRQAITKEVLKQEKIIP
T2 sequence (P00811 20-377): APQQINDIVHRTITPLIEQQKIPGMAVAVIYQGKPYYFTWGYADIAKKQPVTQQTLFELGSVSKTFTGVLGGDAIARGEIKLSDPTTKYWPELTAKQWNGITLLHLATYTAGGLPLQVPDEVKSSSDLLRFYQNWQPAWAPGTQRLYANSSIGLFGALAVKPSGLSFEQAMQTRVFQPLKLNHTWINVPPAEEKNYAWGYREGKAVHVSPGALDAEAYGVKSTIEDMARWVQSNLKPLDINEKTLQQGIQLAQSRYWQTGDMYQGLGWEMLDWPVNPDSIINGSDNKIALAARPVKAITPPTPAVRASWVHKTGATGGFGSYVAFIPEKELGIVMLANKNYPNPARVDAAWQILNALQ
T5 sequence (C7C422 29-270, looked up, species assumed): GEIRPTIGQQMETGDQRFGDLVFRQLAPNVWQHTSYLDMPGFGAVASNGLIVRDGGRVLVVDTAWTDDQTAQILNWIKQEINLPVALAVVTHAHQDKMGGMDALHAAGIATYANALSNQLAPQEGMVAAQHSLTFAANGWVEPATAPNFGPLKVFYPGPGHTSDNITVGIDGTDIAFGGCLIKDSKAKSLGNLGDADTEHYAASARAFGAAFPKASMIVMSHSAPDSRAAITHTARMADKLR
T4 sequence (Q9F663 25-293, looked up): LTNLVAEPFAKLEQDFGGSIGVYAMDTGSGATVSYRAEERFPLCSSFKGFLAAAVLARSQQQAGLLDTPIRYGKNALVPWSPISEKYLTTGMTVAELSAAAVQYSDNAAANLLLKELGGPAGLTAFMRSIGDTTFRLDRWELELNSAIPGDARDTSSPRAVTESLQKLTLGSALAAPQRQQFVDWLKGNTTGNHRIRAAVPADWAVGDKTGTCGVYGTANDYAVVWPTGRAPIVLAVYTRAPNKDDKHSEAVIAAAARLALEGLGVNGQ

Take `NC(=O)[C@@H]1CC[C@@H]2CN1C(=O)N2OS(=O)(=O)O` [AVI, avibactam]: the “concentration at which ATM-potentiating activity was observed” value in assay [1] is listed as 128 mg/L.
On to `CC(C)(C)C(=O)OCOc1c(-c2ccc(F)c(F)c2)oc2cc(O)cc(O)c2c1=O` [Compound 4], for which the IC50 in assay [2] (setting [7]) is 28.7 µM; in assay [3], 25.4 µM; in assay [4] (setting [8]), 19.3 µM; in assay [5] (setting [9]) it was 33.2 µM; in assay [6] (setting [10]) it was 15.7 µM.
Taken in the same sequence, the figures for `CC(C)OC(=O)OCOc1c(-c2ccc(F)c(F)c2)oc2cc(O)cc(O)c2c1=O` [Compound 5] were 42.7 µM, greater than 50 µM, greater than 100 µM, greater than 50 µM and greater than 50 µM.
Regarding `CC(C)(C)c1ccc(COc2c(-c3ccc(F)c(F)c3)oc3cc(O)cc(O)c3c2=O)cc1` [Compound 6], the IC50 is 37.8 µM in assay [2] (setting [7]); greater than 50 µM in assay [3]; greater than 100 µM in assay [4] (setting [8]); greater than 50 µM in assay [5] (setting [9]); 14.1 µM in assay [6] (setting [10]).
Take `CC(C)c1ccc(COc2c(-c3ccc(F)c(F)c3)oc3cc(O)cc(O)c3c2=O)cc1` [Compound 7]: the IC50 was 6 µM in assay [2] (setting [7]); greater than 50 µM in assay [3]; 13.1 µM in assay [4] (setting [8]); 21.5 µM in assay [5] (setting [9]); 16.7 µM in assay [6] (setting [10]).
With `O=c1c(OCCO)c(-c2ccc(F)c(F)c2)oc2cc(O)cc(O)c12` [Compound 8], the IC50 in assay [2] (setting [7]) is greater than 100 µM; in assay [3], greater than 50 µM; in assay [4] (setting [8]) it was greater than 100 µM; in assay [5] (setting [9]), greater than 50 µM; in assay [6] (setting [10]), greater than 50 µM.
Turning to `O=c1c(OCCOCCO)c(-c2ccc(F)c(F)c2)oc2cc(O)cc(O)c12` [Compound 9], the IC50 in assay [2] (setting [7]) was greater than 100 µM; in assay [3], greater than 50 µM; in assay [4] (setting [8]) it was greater than 100 µM; in assay [5] (setting [9]) it was greater than 50 µM; in assay [6] (setting [10]), greater than 50 µM.
`O=c1c(OCCOCCOCCO)c(-c2ccc(F)c(F)c2)oc2cc(O)cc(O)c12` [Compound 10]: the half-maximal inhibitory concentration (IC50) in assay [2] (setting [7]) was greater than 100 µM; in assay [3], greater than 50 µM; in assay [4] (setting [8]) it was greater than 100 µM; in assay [5] (setting [9]) it was greater than 50 µM; in assay [6] (setting [10]), greater than 50 µM.
As for `NCCOCCOc1c(-c2ccc(F)c(F)c2)oc2cc(O)cc(O)c2c1=O` [Compound 11], the IC50 in assay [2] (setting [7]) was greater than 100 µM; in assay [3] it was greater than 50 µM; in assay [4] (setting [8]) it was greater than 100 µM; in assay [5] (setting [9]), greater than 50 µM; in assay [6] (setting [10]) it was greater than 50 µM.
`O=c1c(OCCc2cccs2)c(-c2ccc(F)c(F)c2)oc2cc(O)cc(O)c12` [Compound 12]: the concentration for half-maximal inhibition (IC50) is greater than 100 µM in assay [2] (setting [7]); greater than 50 µM in assay [3]; greater than 100 µM in assay [4] (setting [8]); greater than 50 µM in assay [5] (setting [9]); greater than 50 µM in assay [6] (setting [10]).
As for `CN(C)CCOc1c(-c2ccc(F)c(F)c2)oc2cc(O)cc(O)c2c1=O` [Compound 13], the IC50 in assay [2] (setting [7]) is greater than 100 µM; in assay [3] it was greater than 50 µM; in assay [4] (setting [8]), greater than 100 µM; in assay [5] (setting [9]) it was greater than 50 µM; in assay [6] (setting [10]), greater than 50 µM.
Turning to `O=c1c(OCCN2CC2)c(-c2ccc(F)c(F)c2)oc2cc(O)cc(O)c12` [Compound 14], the IC50 is greater than 100 µM in assay [2]; greater than 50 µM in assay [3]; greater than 100 µM in assay [4]; greater than 50 µM in assay [5]; greater than 50 µM in assay [6].
For `C[N+](C)(CCOc1c(-c2ccc(F)c(F)c2)oc2cc(O)cc(O)c2c1=O)CC(=O)[O-]` [Compound 15], the IC50 is greater than 100 µM in assay [2] (setting [7]); greater than 50 µM in assay [3]; greater than 100 µM in assay [4] (setting [8]); greater than 50 µM in assay [5] (setting [9]); greater than 50 µM in assay [6] (setting [10]).
For the compound `CN1CCN(CCOc2c(-c3ccc(F)c(F)c3)oc3cc(O)cc(O)c3c2=O)CC1` [Compound 16], the IC50 is greater than 100 µM in assay [2] (setting [7]); greater than 50 µM in assay [3]; greater than 100 µM in assay [4] (setting [8]); greater than 50 µM in assay [5] (setting [9]); greater than 50 µM in assay [6] (setting [10]).
Turning to `O=c1c(OCCN2CCNCC2)c(-c2ccc(F)c(F)c2)oc2cc(O)cc(O)c12` [Compound 17], the IC50 in assay [2] (setting [7]) is greater than 100 µM; in assay [3], greater than 50 µM; in assay [4] (setting [8]) it was greater than 100 µM; in assay [5] (setting [9]), greater than 50 µM; in assay [6] (setting [10]), greater than 50 µM.
`O=c1c(OCCN2CCCC2)c(-c2ccc(F)c(F)c2)oc2cc(O)cc(O)c12` [Compound 18]: the IC50 in assay [2] (setting [7]) was greater than 100 µM; in assay [3] it was greater than 50 µM; in assay [4] (setting [8]) it was greater than 100 µM; in assay [5] (setting [9]) it was greater than 50 µM; in assay [6] (setting [10]), greater than 50 µM.
On to `O=c1c(OCCN2CCCCC2)c(-c2ccc(F)c(F)c2)oc2cc(O)cc(O)c12` [Compound 19], for which the half-maximal inhibitory concentration (IC50) is greater than 100 µM in assay [2] (setting [7]); greater than 50 µM in assay [3]; greater than 100 µM in assay [4] (setting [8]); greater than 50 µM in assay [5] (setting [9]); greater than 50 µM in assay [6] (setting [10]).
As to `O=c1c(OCCN2CCOCC2)c(-c2ccc(F)c(F)c2)oc2cc(O)cc(O)c12` [Compound 20], the IC50 in assay [2] (setting [7]) was greater than 100 µM; in assay [3], greater than 50 µM; in assay [4] (setting [8]) it was greater than 100 µM; in assay [5] (setting [9]) it was greater than 50 µM; in assay [6] (setting [10]) it was greater than 50 µM.
Consider `CN1CCCC1CCOc1c(-c2ccc(F)c(F)c2)oc2cc(O)cc(O)c2c1=O` (stereo not drawn) [Compound 21], for which the IC50 in assay [2] (setting [7]) is greater than 100 µM; in assay [3] it was greater than 50 µM; in assay [4] (setting [8]), greater than 100 µM; in assay [5] (setting [9]) it was greater than 50 µM; in assay [6] (setting [10]), greater than 50 µM.
With `O=c1c(OCCC(F)(F)F)c(-c2ccc(F)c(F)c2)oc2cc(O)cc(O)c12` [Compound 22], the IC50 was 39.8 µM in assay [2] (setting [7]); greater than 50 µM in assay [3]; greater than 100 µM in assay [4] (setting [8]); greater than 50 µM in assay [5] (setting [9]); greater than 50 µM in assay [6] (setting [10]).
In the case of `CC(C)CCOc1c(-c2ccc(F)c(F)c2)oc2cc(O)cc(O)c2c1=O` [Compound 24], the IC50 in assay [2] (setting [7]) is 19.1 µM; in assay [3], greater than 50 µM; in assay [4] (setting [8]), 42.1 µM; in assay [5] (setting [9]), 39.4 µM; in assay [6] (setting [10]), greater than 50 µM.
With `O=c1c(OCCC2CC2)c(-c2ccc(F)c(F)c2)oc2cc(O)cc(O)c12` [Compound 25], the half-inhibitory concentration (IC50) in assay [2] (setting [7]) was 11.4 µM; in assay [3], greater than 50 µM; in assay [4] (setting [8]), 13.9 µM; in assay [5] (setting [9]), 22.8 µM; in assay [6] (setting [10]), 22.7 µM.
Turning to `O=c1c(OCC2CCCC2)c(-c2ccc(F)c(F)c2)oc2cc(O)cc(O)c12` [Compound 28], the IC50 in assay [2] (setting [7]) was 9.2 µM; in assay [3], greater than 50 µM; in assay [4] (setting [8]), 7.8 µM; in assay [5] (setting [9]), 40.8 µM; in assay [6] (setting [10]) it was 21.8 µM.
As to `O=c1c(OCCCC2CCCC2)c(-c2ccc(F)c(F)c2)oc2cc(O)cc(O)c12` [Compound 29], the IC50 in assay [2] (setting [7]) is 5.5 µM; in assay [3] it was greater than 50 µM; in assay [4] (setting [8]) it was 5.1 µM; in assay [5] (setting [9]), 28.3 µM; in assay [6] (setting [10]), 26.7 µM.
Taken in the same sequence, the figures for `O=c1c(OCCC2CCOCC2)c(-c2ccc(F)c(F)c2)oc2cc(O)cc(O)c12` [Compound 30] were 35.9 µM, greater than 50 µM, greater than 100 µM, greater than 50 µM and greater than 50 µM.
For `O=c1c(OCCC2CCNCC2)c(-c2ccc(F)c(F)c2)oc2cc(O)cc(O)c12` [Compound 31], in that order: greater than 100 µM, greater than 50 µM, greater than 100 µM, greater than 50 µM and greater than 50 µM.
